Assay results published in patent US20090069320A1, “Substituted 4-Amino-Quinazoline Compounds with Metabotropic Glutamate Receptor Regulating Activity and Uses Thereof” (Gruenenthal GmbH, priority 2006, published 2009).

Biological target: T1, mGluR5 receptor (Sus scrofa, UniProt I3LUI7)
T1 construct: 450 μg of protein from brain homogenate with 5 nM ^3[H]-MPEP; from tissue; host or cells: pig brain halves without medulla, cerebellum and pons
Experiment: [3H]-MPEP mGluR5 receptor binding assay (pig brain homogenate)
Details: 5 nM [3H]-MPEP; for % Inhibition of mGluR5 Receptor (pig) [^3H]-MPEP Bond at 10 μM / inhibition at 10 µM: 10 μM compound; for inhibition at 10 µM: read-out: % Inhibition of mGluR5 Receptor (pig) [^3H]-MPEP Bond at 10 μM; for IC50: read-out: IC50 mGluR5 Receptor (pig) [^3H]-MPEP Bond
In short: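 Radioligand displacement of 5 nM [3H]-MPEP from pig brain homogenate (450 μg protein; medulla, cerebellum and pons removed) in 20 mM Hepes pH 8.0. Compounds were tested at 10 μM, incubated 60 min at room temperature, then filtered and counted by scintillation. Non-specific binding was defined with 10 μM MPEP.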

T1 sequence (I3LUI7 19-1212): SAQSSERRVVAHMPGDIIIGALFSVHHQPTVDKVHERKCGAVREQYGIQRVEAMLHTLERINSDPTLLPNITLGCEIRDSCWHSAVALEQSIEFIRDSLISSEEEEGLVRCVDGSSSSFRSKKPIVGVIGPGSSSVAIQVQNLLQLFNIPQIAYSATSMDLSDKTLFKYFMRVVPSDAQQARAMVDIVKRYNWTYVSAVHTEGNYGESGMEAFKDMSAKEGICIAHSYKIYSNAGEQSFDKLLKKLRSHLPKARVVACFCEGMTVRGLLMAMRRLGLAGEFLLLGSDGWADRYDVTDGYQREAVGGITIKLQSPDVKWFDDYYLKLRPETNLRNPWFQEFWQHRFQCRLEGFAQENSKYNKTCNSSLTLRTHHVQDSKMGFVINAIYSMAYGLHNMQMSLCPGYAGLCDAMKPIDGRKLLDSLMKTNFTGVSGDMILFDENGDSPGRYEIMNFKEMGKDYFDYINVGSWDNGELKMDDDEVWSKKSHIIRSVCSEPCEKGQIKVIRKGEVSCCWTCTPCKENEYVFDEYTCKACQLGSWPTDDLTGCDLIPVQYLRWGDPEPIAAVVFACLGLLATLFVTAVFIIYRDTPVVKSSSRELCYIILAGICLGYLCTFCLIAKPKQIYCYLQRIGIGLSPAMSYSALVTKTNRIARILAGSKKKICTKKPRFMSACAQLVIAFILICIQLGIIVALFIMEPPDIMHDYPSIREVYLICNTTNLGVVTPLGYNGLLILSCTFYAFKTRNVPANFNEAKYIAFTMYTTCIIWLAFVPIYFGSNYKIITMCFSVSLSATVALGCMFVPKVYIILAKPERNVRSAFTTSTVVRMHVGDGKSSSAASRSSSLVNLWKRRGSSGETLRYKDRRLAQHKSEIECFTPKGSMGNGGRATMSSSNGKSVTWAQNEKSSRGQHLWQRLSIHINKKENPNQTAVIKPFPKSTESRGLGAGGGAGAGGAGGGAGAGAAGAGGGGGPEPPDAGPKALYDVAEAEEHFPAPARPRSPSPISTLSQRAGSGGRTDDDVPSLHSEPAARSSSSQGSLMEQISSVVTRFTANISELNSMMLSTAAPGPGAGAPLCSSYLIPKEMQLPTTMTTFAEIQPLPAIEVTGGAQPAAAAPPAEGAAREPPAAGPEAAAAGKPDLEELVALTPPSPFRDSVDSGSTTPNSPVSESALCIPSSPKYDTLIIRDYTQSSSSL

Row | inhibition at 10 µM [%] | Structure (SMILES) | other results
1 | 71 | O=C(c1cccs1)N(Cc1cc(-c2ccc3ncnc(NC4CC4)c3c2)ccn1)C1CC1 [Example 811, N-cyclopropyl-N-((4-(4-(cyclopropylamino)quinazolin-6-yl)pyridin-2-yl)methyl)thiophene-2-carboxamide] | –
2 | 40 | N#CCC(=O)N(Cc1cccc(-c2ccc3ncnc(NC4CC4)c3c2)c1)c1cccnc1 [Example 195, 2-cyano-N-[3-(4-cyclopropylamino-quinazolin-6-yl)-benzyl]-N-pyridin-3-yl-acetamide] | –
3 | 90 | O=C(c1ccccc1Br)N(Cc1cccc(-c2ccc3ncnc(NC4CC4)c3c2)c1)C1CC1 [Example 157, 2-bromo-N-cyclopropyl-N-[3-(4-cyclopropylamino-quinazolin-6-yl)-benzyl]-benzamide] | –
4 | 93 | O=C(c1ccco1)N(Cc1cccc(-c2cc(F)c3ncnc(NC4CC4)c3c2)c1)C1CC1 [Example 677, N-cyclopropyl-N-(3-(4-(cyclopropylamino)-8-fluoroquinazolin-6-yl)benzyl)furan-2-carboxamide] | –
5 | 34 | CC(C)S(=O)(=O)N(Cc1cccc(-c2ccc3ncnc(NCCc4ccccc4)c3c2)c1)C1CC1 [Example 818, N-cyclopropyl-N-(3-(4-(phenethylamino)quinazolin-6-yl)benzyl)propane-2-sulfonamide] | –
6 | 81 | COc1ccc(C(=O)N(Cc2cccc(-c3ccc4ncnc(NC5CC5)c4c3)c2)C2CC2)cc1OC [Example 158, N-cyclopropyl-N-[3-(4-cyclopropylamino-quinazolin-6-yl)-benzyl]-3,4-dimethoxy-benzamide] | –
7 | 79 | O=C(Cc1ccccc1)N(Cc1cccc(-c2cc(F)c3ncnc(NC4CC4)c3c2)c1)C1CC1 [Example 670, N-cyclopropyl-N-(3-(4-(cyclopropylamino)-8-fluoroquinazolin-6-yl)benzyl)-2-phenylacetamide] | –
8 | 48 | Cc1nc(NC2CC2)c2cc(-c3cccc(CN(C(=O)c4cccc(C(F)(F)F)c4)C4CC4)c3)ccc2n1 [Example 462, N-cyclopropyl-N-(3-(4-(cyclopropylamino)-2-methylquinazolin-6-yl)benzyl)-3-(trifluoromethyl)benzamide] | –
9 | 40 | Cc1cccc(CNc2ncnc3ccc(-c4cccc(CN(C(=O)c5ccncc5)C5CC5)c4)cc23)c1 [Example 403, N-cyclopropyl-N-(3-(4-(3-methylbenzylamino)quinazolin-6-yl)benzyl)isonicotinamide] | –

Second part, the compound before the results:

Row | Structure (SMILES) | inhibition at 10 µM [%] | other results
10 | CC(C)(C)Nc1ncnc2ccc(-c3ccc(F)c(CN(C4CC4)S(=O)(=O)c4cccs4)c3)cc12 [Example 810, N-(5-(4-(tert-butylamino)quinazolin-6-yl)-2-fluorobenzyl)-N-cyclopropyl thiophene-2-sulfonamide] | – | % Inhibition of mGluR5 Receptor (pig) [^3H]-MPEP Bond at 10 μM: 45%
11 | CN(c1ncnc2ccc(-c3ccc(F)c(CN(C(=O)c4ccco4)C4CC4)c3)cc12)C1CC1 [Example 420, N-cyclopropyl-N-(5-(4-(cyclopropyl(methyl)amino)quinazolin-6-yl)-2-fluorobenzyl)furan-2-carboxamide] | 94 | –
12 | O=S(=O)(c1cccc(C(F)(F)F)c1)N(Cc1cccc(-c2cc(F)c3ncnc(NC4CC4)c3c2)c1)C1CC1 [Example 686, N-cyclopropyl-N-(3-(4-(cyclopropylamino)-8-fluoroquinazolin-6-yl)benzyl)-3-(trifluoromethyl)benzole sulfonamide] | – | % Inhibition of mGluR5 Receptor (pig) [^3H]-MPEP Bond at 10 μM: 68%
13 | O=C(c1ccno1)N(Cc1cc(-c2ccc3ncnc(NC4CC4)c3c2)ccc1F)C1CC1 [Example 457, N-cyclopropyl-N-(5-(4-(cyclopropylamino)quinazolin-6-yl)-2-fluorobenzyl)isoxazole-5-carboxamide] | – | IC50: 210 nM
14 | O=C(c1ccccc1)N(Cc1cccc(-c2ccc3ncnc(NC4CC4)c3c2)c1)C1CC1 [Example 274, N-cyclopropyl-N-(3-(4-(cyclopropylamino)quinazolin-6-yl)benzyl)benzamide] | – | IC50: 860 nM
15 | c1cc(CN(c2nccs2)C2CC2)cc(-c2ccc3ncnc(NC4CC4)c3c2)c1 [Example 892, N-cyclopropyl-N-(3-(4-(cyclopropylamino)quinazolin-6-yl)benzyl)thiazole-2-amine] | – | IC50: 80 nM
16 | N#CCC(=O)N(Cc1cccc(-c2ccc3ncnc(N4CCCC4)c3c2)c1)C1CC1 [Example 133, 2-cyano-N-cyclopropyl-N-[3-(4-pyrrolidin-1-yl-quinazolin-6-yl)-benzyl]-acetamide] | 50 | –
17 | CC(C)(C)C(=O)N(Cc1cc(-c2ccc3ncnc(NC4CC4)c3c2)ccc1Cl)C1CC1 [Example 785, N-(2-chloro-5-(4-(cyclopropylamino)quinazolin-6-yl)benzyl)-N-cyclopropyl pivalamide] | – | % Inhibition of mGluR5 Receptor (pig) [^3H]-MPEP Bond at 10 μM: 100%
18 | CCCCC(=O)N(Cc1cc(-c2ccc3ncnc(NC(C)(C)C)c3c2)ccc1F)C1CC1 [Example 856, N-(5-(4-(tert-butylamino)quinazolin-6-yl)-2-fluorobenzyl)-N-cyclopropyl pentanamide] | – | % Inhibition of mGluR5 Receptor (pig) [^3H]-MPEP Bond at 10 μM: 89%
19 | O=C1C=CC(=O)N1Cc1cc(-c2ccc3ncnc(NC4CC4)c3c2)ccc1F [Example 192, 1-(5-(4-(cyclopropylamino)quinazolin-6-yl)-2-fluorobenzyl)-1H-pyrrole-2,5-dione] | 41 | –
20 | Cc1nc(NC2CC2)c2cc(-c3ccc(F)c(CN(C(=O)C4CCCCC4)C4CC4)c3)ccc2n1 [Example 639, N-cyclopropyl-N-(5-(4-(cyclopropylamino)-2-methylquinazolin-6-yl)-2-fluorobenzyl)cyclohexane carboxamide] | 46 | –
21 | CN1CCN(Cc2cccc(-c3ccc4ncnc(NC5CC5)c4c3)c2)C1=O [Example 877, 1-(3-(4-(cyclopropylamino)quinazolin-6-yl)benzyl)-3-methylimidazolidin-2-one] | – | IC50: 9570 nM
22 | CCCN(Cc1cccc(-c2ccc3ncnc(Nc4ccccc4)c3c2)c1)C(=O)c1ccc(C)cc1 [Example 91, 4-methyl-N-[3-(4-phenylamino-quinazolin-6-yl)-benzyl]-N-propyl-benzamide] | 54 | –
23 | CS(=O)(=O)N(Cc1cncc(-c2ccc3ncnc(NC4CC4)c3c2)c1)C1CC1 [Example 234, N-cyclopropyl-N-[5-(4-cyclopropylamino-quinazolin-6-yl)-pyridin-3-yl-methyl]-methane sulfonamide] | 41 | –
24 | O=S(=O)(c1cccs1)N(Cc1cc(-c2ccc3ncnc(NC4CC4)c3c2)ccn1)C1CC1 [Example 788, N-cyclopropyl-N-((4-(4-(cyclopropylamino)quinazolin-6-yl)pyridin-2-yl)methyl)thiophene-2-sulfonamide] | 77 | –
25 | COc1ccc(-c2ccc3ncnc(NC4CC4)c3c2)cc1CNC1CC1 [Example 298, N-cyclopropyl-6-(3-((cyclopropylamino)methyl)-4-methoxyphenyl)quinazoline-4-amine] | – | IC50: 10800 nM
26 | CC(C)(C)Nc1ncnc2ccc(-c3ccc(F)c(CN(C(=O)CCc4ccccc4)C4CC4)c3)cc12 [Example 821, N-(5-(4-(tert-butylamino)quinazolin-6-yl)-2-fluorobenzyl)-N-cyclopropyl-3-phenyl propanamide] | – | % Inhibition of mGluR5 Receptor (pig) [^3H]-MPEP Bond at 10 μM: 84%
27 | N#CCC(=O)N(Cc1cc(F)cc(-c2ccc3ncnc(NC4CC4)c3c2)c1)C1CC1 [Example 902, 2-cyano-N-cyclopropyl-N-(3-(4-(cyclopropylamino)quinazolin-6-yl)-5-fluorobenzyl)acetamide] | 92 | –
28 | CS(=O)(=O)N(Cc1cc(-c2ccc3ncnc(NC4CC4)c3c2)ccc1F)C1CC1 [Example 251, N-cyclopropyl-N-(5-(4-(cyclopropylamino)quinazolin-6-yl)-2-fluorobenzyl)methane sulfonamide] | 30 | –
29 | COc1ccc(CNc2ncnc3ccc(-c4cccc(CN(C(=O)CN(C)C)C5CC5)c4)cc23)c(OC)c1 [Example 689, N-cyclopropyl-N-(3-(4-(2,4-dimethoxybenzylamino)quinazolin-6-yl)benzyl)-2-(dimethylamino)acetamide] | 41 | –
30 | O=C(C1CCCCC1)N(Cc1cc(-c2ccc3ncnc(NC4CC4)c3c2)ccn1)C1CC1 [Example 835, N-cyclopropyl-N-((4-(4-(cyclopropylamino)quinazolin-6-yl)pyridin-2-yl)methyl)cyclohexane carboxamide] | 58 | –
31 | CC(C)(C)Nc1ncnc2ccc(-c3ccc(F)c(CN(C(=O)c4cccc(C(F)(F)F)c4)C4CC4)c3)cc12 [Example 808, N-(5-(4-(tert-butylamino)quinazolin-6-yl)-2-fluorobenzyl)-N-cyclopropyl-3-(trifluoromethyl)benzamide] | 81 | –
32 | CC(=O)OCN(Cc1cccc(-c2ccc3ncnc(NC4CC4)c3c2)c1)C(C)=O [Example 203, {acetyl-[3-(4-cyclopropylamino-quinazolin-6-yl)-benzyl]-amino}-methyl acetate] | 39 | –
33 | Cc1ccc(C(=O)N(Cc2ccccc2)Cc2cccc(-c3ccc4ncnc(NC(C)C)c4c3)c2)cc1 [Example 54, N-benzyl-N-[3-(4-isopropylamino-quinazolin-6-yl)-benzyl]-4-methyl-benzamide] | 47 | –
34 | CC(=O)N(Cc1cccc(-c2ccc3ncnc(NC4CC4)c3c2)c1F)C1CC1 [Example 191, N-cyclopropyl-N-(3-(4-(cyclopropylamino)quinazolin-6-yl)-2-fluorobenzyl)acetamide] | – | IC50: 670 nM
35 | Cc1cc2ncnc(NC3CC3)c2cc1-c1cccc(CN(C(=O)C(C)(C)C)C2CC2)c1 [Example 719, N-cyclopropyl-N-(3-(4-(cyclopropylamino)-7-methylquinazolin-6-yl)benzyl)pivalamide] | 84 | –
